The source of these data is patent publication US20260258003A1, “SLACK-ACTIVATING COMPOUNDS AND THEIR MEDICAL USE” (Johann Wolfgang Goethe-Universität Frankfurt am Main, priority 2023, published 2026).

Read-outs that look alike come from different tables or passages of the source.

The nature of this data set: In vivo pharmacokinetic study, plasma and brain levels by LC-MS. On the set-up: species or system mice. How it is done:
The compounds pharmacokinetic properties were examined in vivo by administering the compounds intraperitoneally (i.p.) at 1 mg/kg in mice, and determining plasma and brain levels over 8 h by LC-MS measurements.
The pharmacokinetic study was performed by Pharmacelsus (Saarbrücken, Germany). In total 27 male C57BL/6 mice (8 weeks old, 23-31 g body weight, purchased from Janvier Labs, France) were used. The animals were housed in a temperature-controlled room (20-24° C.) and maintained in a 12 h light/dark cycle. Food and water were available ad libitum. All experimental procedures were approved by and conducted in accordance with the regulations of the local Animal Welfare authorities (Landesamt für Gesundheit und Verbraucherschutz, Abteilung Lebensmittel-und Veterinärwesen, Saarbrücken).
The animals were divided into 3 groups (9 mice/group) and a cassette dosing was performed, in which the mice received a single dose of 1 mg/kg body weight of 3-4 compounds (dissolved in 0.9% NaCl containing 20% cyclodextrine) i.p. simultaneously. From each animal 2 blood samples were collected from the retrobulbar venous plexus under short isoflurane anesthesia (at 0.25 h and 0.5 h from 3 mice; at 1 h and 2 h from 3 mice; and at 4 h and 8 h from 3 mice). Li-heparin was used as anticoagulant. Plasma samples were obtained by centrifugation for 10 min at 3000× g and 4° C. Immediately after the last blood sample the animal was sacrificed by cervical dislocation and the brain was removed and frozen in liquid nitrogen. Plasma and brain samples were stored at −80° C. until LC-MS analysis.
For all other compounds, the HPLC system consisted of a U-HPLC pump (Accela) and an AS Open auto sampler (Thermo Fisher Scientific, USA), and mass spectrometry was performed on a Q Exactive (Orbitrap) accurate mass spectrometer equipped with a heated electrospray (H-ESI) interface (Thermo Fisher Scientific, USA) connected to a PC running the standard software Chromeleon 7.2. For all compounds, the HPLC pump flow rate was set to 600 μl/min and the compounds were separated on an analytical column with a suitable pre-column. The pharmacokinetic analysis was performed applying a non-compartment model using the Kinetica 5.0 software (Thermo Scientific, Waltham, USA). All given parameters were obtained by trapezoid area calculation.

The mark [1] stands for this setting: male, C57BL/6, mouse, in vivo, ip, 1 mg/kg.
[2] abbreviates: mice, 1 mg/kg i.p., cassette dosing, plasma.

For the compound `CN1CCN(C2=Nc3cc(F)ccc3Oc3ccc(C(F)(F)F)cc32)CC1` [Compound 4, 8-Fluoro-11-(4-methylpiperazin-1-yl)-2-(trifluoromethyl)dibenzo[b,f][1,4]oxazepine], under setting [1], the “% AUCextra” value worked out at 11.4%, the AUC(0-inf) was found to be 0.122 µg·h/mL, the AUC(0-t) was 0.108 µg·h/mL and the CL/F was 8.2 L/h/kg. Moreover, under setting [1], the concentration peaked (Cmax) at 0.04 µg/mL, the Cz came to 4.1 ng/mL, the Tmax stood at 30 min and the Vd/F is 27.7 L/kg. Under setting [1], the half-life was 138 min and the tz was determined as 8 h.
On to `O=C(O)COCCN1CCN(C2=Nc3ccccc3Oc3ccc(Cl)cc32)CC1` [Compound 6, 2-(2-(4-(2-Chlorodibenzo[b,f][1,4]oxazepin-11-yl)piperazin-1-yl)ethoxy) acetic acid], for which, under setting [1], the “% AUCextra” value turned out to be 10.1%, the total exposure AUC(0-inf) stood at 0.467 µg·h/mL, the AUC(0-t) was 0.42 µg·h/mL and the CL/F was 2.14 L/h/kg. Further, under setting [1], the Cmax was 0.24 µg/mL, the Cz is 13.3 ng/mL, the time of peak concentration (Tmax) came to 15 min and the Vd/F is 7.56 L/kg. Under setting [1], this compound had a half-life of 144 min and a tz of 8 h. In addition, the Kp (male, C57BL/6, mouse, in vivo, ip, mice, 1 mg/kg i.p., read-out: brain/plasma ratio) was at most 0.3.
As to `OCCOCCN1CCN(C2=Nc3ccccc3Sc3ccc(Cl)cc32)CC1` [Compound 7, 2-(2-(4-(2-Chlorodibenzo[b,f][1,4]thiazepin-11-yl)piperazin-1-yl)ethoxy) ethan-1-ol], under setting [1], the “% AUCextra” value came to 0.9%, the AUC(0-inf) came out at 0.0719 µg·h/mL, the AUC(0-t) is 0.0712 µg·h/mL and the CL/F is 13.9 L/h/kg. In addition, under setting [1], the Cmax was 0.0872 µg/mL, the Cz stood at 0.3 ng/mL, the Tmax amounted to 15 min and the Vd/F was 31.4 L/kg. Under setting [1], this compound showed a half-life of 96 min and a tz of 8 h.
In the case of `O=c1nc(CN2CCN(C3=Nc4ccccc4Oc4ccc(Cl)cc43)CC2)[nH][nH]1` [Compound 10, 5-((4-(2-Chlorodibenzo[b,f][1,4]oxazepin-11-yl)piperazin-1-yl)methyl)-1,2-dihydro-3H-1,2,4-triazol-3-one], the Kp under setting [1] was at most 0.3.
In the case of `CN1CCN(C2=Nc3ccccc3Oc3ccc(C(F)(F)F)cc32)CC1` [Compound 2, 11-(4-Methylpiperazin-1-yl)-2-(trifluoromethyl)dibenzo[b,f][1,4]oxazepine], under setting [1], the “% AUCextra” value is on record as 19.3%, the AUC(0-inf) stood at 0.084 µg·h/mL, the AUC(0-t) worked out at 0.0678 µg·h/mL and the CL/F was 11.9 L/h/kg. For the same compound, under setting [1], the Cmax turned out to be 0.0256 µg/mL, the Cz turned out to be 3.3 ng/mL, the Tmax was determined as 15 min and the Vd/F stood at 58.5 L/kg. Further, under setting [1], the half-life is 204 min and the tz is reported as 8 h.
Turning to `CN1CCCN(C2=Nc3ccccc3Oc3ccc(C(F)(F)F)cc32)CC1` [Compound 3, 11-(4-Methyl-1,4-diazepan-1-yl)-2-(trifluoromethyl)dibenzo[b,f][1,4]oxazepine], under setting [1], the “% AUCextra” value is 5.0%, the AUC(0-inf) was 0.0583 µg·h/mL, the AUC(0-t) was found to be 0.0554 µg·h/mL and the CL/F was 17.2 L/h/kg. Moreover, under setting [1], the Cmax is 0.0323 µg/mL, the Cz was 1.0 ng/mL, the Tmax was determined as 30 min and the Vd/F was determined as 50.1 L/kg. Under setting [1], this compound had a half-life of 120 min and a tz of 8 h.
Take `O=C(O)COCCN1CCN(C2=Nc3ccccc3Oc3ccc(C(F)(F)F)cc32)CC1` [Compound 8, 2-(2-(4-(2-(Trifluoromethyl)dibenzo[b,f][1,4]oxazepin-11-yl)piperazin-1-yl)ethoxy) acetic acid]: under setting [1], the “% AUCextra” value is 20.7%, the AUC(0-inf) stood at 0.851 µg·h/mL, the AUC(0-t) turned out to be 0.675 µg·h/mL and the CL/F is 1.17 L/h/kg. For the same compound, under setting [1], the Cmax amounted to 0.316 µg/mL, the Cz is 31.4 ng/mL, the Tmax was determined as 15 min and the Vd/F worked out at 6.58 L/kg. Also, under setting [1], the half-life was 234 min and the tz amounted to 8 h.
In the case of `O=C(O)COCCN1CCCN(C2=Nc3ccccc3Oc3ccc(C(F)(F)F)cc32)CC1` [Compound 9, 2-(2-(4-(2-(Trifluoromethyl)dibenzo[b,f][1,4]oxazepin-11-yl)-1,4-diazepan-1-yl)ethoxy) acetic acid], under setting [1], the “% AUCextra” value was 0.6%, the AUC(0-inf) turned out to be 0.123 µg·h/mL, the AUC(0-t) stood at 0.123 µg·h/mL and the CL/F is 8.11 L/h/kg. Further, under setting [1], the Cmax was 0.242 µg/mL, the Cz turned out to be 0.3 ng/mL, the Tmax turned out to be 15 min and the Vd/F was 21.1 L/kg. Besides, under setting [1], the half-life was 108 min and the tz was found to be 8 h.
In the case of `CN1CCN(C2=Nc3ccccc3Oc3ccc(Cl)cc32)CC1` [Loxapine, 2-chloro-11-(4-methylpiperazin-1-yl)dibenzo[b,f][1,4]oxazepine, reference compound], where the note is “male, C57BL/6, mouse, ip, mice, 1 mg/kg i.p., cassette dosing, plasma, read-out: AUC (0-inf)”, the area under the curve AUC(0-inf) was found to be 0.116 µg·h/mL. Further, under “male, C57BL/6, mouse, ip, mice, 1 mg/kg i.p., cassette dosing, plasma, read-out: AUC(0-tz)”, the AUC(0-t) is 0.105 µg·h/mL. The CL/F (male, C57BL/6, mouse, ip, mice, 1 mg/kg i.p., cassette dosing, plasma, read-out: CL/f (converted)) was 8.63 L/h/kg. In addition, the Cmax (male, C57BL/6, mouse, ip, mice, 1 mg/kg i.p., cassette dosing, plasma, read-out: Cmax) came out at 0.0416 µg/mL. The Vd/F (male, C57BL/6, mouse, ip, mice, 1 mg/kg i.p., cassette dosing, plasma, read-out: Vz/f) is 28.8 L/kg. Further, the half-life (male, C57BL/6, mouse, ip, mice, 1 mg/kg i.p., cassette dosing, plasma, read-out: t1/2z (terminal elimination half-life) (converted)) is 138 min. The time to peak (Tmax) (male, C57BL/6, mouse, ip, mice, 1 mg/kg i.p., cassette dosing, plasma, read-out: tmax) was 15 min. Also, under setting [2], the “% AUCextra” value was 9.2%, the Cz was 3.2 ng/mL and the tz was found to be 8 h.
Consider `OCCN1CCN(C2=Nc3ccccc3Oc3ccc(Cl)cc32)CC1` [Compound 5, 2-(4-(2-Chlorodibenzo[b,f][1,4]oxazepin-11-yl)piperazin-1-yl) ethan-1-ol], for which, under setting [1], the “% AUCextra” value is 1.3%, the AUC(0-inf) is 0.0502 µg·h/mL, the AUC(0-t) is 0.0496 µg·h/mL and the CL/F is 19.9 L/h/kg. Under setting [1], the Cmax was 0.044 µg/mL, the Cz came to 0.4 ng/mL, the Tmax worked out at 15 min and the Vd/F worked out at 33.1 L/kg. Further, under setting [1], the half-life was 72 min and the tz worked out at 8 h.
